Where two headings read alike, the source gives them in different places.
Legend:
[1] = molecular target: T1, KDR (baculovirus expressed human KDR kinase domain D807-V1356) (Homo sapiens, UniProt P35968); assay: biochemical;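 also: Luciferase-coupled chemiluminescent kinase assay, activity read as percent ATP left after 4 h reaction at ambient temperature, ATP near KM, 10-point dose-response in 384-well plates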
T1 construct: human KDR kinase domain D807-V1356; host or cells: baculovirus expression
T1 sequence (P35968 807-1356): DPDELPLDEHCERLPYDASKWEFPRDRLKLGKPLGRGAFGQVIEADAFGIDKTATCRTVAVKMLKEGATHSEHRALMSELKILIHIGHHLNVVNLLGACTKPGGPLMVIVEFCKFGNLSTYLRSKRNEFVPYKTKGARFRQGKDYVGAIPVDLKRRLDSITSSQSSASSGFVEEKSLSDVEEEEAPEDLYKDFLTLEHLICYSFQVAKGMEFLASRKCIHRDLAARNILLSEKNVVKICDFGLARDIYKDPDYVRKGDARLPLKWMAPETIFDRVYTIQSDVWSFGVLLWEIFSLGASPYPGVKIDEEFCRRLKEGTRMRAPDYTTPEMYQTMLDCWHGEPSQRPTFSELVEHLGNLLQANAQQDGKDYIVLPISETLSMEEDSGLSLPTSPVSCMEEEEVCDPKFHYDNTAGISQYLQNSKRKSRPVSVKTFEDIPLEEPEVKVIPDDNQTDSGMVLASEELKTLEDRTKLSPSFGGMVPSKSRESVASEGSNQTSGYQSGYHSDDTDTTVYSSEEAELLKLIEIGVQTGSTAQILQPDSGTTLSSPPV

[2] = molecular target: T2, Flt-4 (baculovirus expressed human Flt-4 kinase domain D725-R1298) (Homo sapiens, UniProt P35916); assay: flt-4 Alphascreen Tyrosine Kinase assay; type: biochemical; conditions: read-out: flt4 IC50;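 also: AlphaScreen chemiluminescence read-out of biotinylated poly(Glu,Tyr) 4:1 phosphorylation via streptavidin donor and PY100 anti-phosphotyrosine acceptor beads, ATP near KM, 1 hr kinase reaction, 10-point dose-response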
T2 construct: human Flt-4 kinase domain D725-R1298; host or cells: baculovirus expression
T2 sequence (P35916 725-1298 isoform P35916-1): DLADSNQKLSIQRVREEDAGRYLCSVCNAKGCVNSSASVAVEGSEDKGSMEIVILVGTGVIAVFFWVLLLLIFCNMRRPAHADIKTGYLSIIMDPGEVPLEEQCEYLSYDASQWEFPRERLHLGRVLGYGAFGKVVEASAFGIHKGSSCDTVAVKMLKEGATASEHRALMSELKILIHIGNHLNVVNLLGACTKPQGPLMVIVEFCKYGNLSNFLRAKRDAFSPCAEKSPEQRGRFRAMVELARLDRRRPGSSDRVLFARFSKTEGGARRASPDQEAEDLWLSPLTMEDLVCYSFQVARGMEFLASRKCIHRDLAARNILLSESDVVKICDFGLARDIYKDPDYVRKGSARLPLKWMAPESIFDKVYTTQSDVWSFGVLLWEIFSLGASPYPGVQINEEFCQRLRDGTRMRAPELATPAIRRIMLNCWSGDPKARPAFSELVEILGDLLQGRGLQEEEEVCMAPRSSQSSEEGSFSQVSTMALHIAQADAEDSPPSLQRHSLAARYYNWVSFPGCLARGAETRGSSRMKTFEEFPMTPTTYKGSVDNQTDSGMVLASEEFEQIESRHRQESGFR

[3] = molecular target: T3, c-Met (baculovirus expressed human c-Met kinase domain P948-S1343) (Homo sapiens, UniProt P08581); assay: c-Met Luciferase-Coupled Chemiluminescent Kinase assay (LCCA); type: biochemical;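 also: kinase activity read as percent ATP left after reaction, by luciferase-luciferin chemiluminescence, with 1 µM ATP and 1 µM poly-EY substrate, 2 h at ambient temperature, 10-point dose-response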
T3 construct: human c-Met kinase domain P948-S1343; host or cells: baculovirus expression
T3 sequence (P08581 1011-1343 limits assumed): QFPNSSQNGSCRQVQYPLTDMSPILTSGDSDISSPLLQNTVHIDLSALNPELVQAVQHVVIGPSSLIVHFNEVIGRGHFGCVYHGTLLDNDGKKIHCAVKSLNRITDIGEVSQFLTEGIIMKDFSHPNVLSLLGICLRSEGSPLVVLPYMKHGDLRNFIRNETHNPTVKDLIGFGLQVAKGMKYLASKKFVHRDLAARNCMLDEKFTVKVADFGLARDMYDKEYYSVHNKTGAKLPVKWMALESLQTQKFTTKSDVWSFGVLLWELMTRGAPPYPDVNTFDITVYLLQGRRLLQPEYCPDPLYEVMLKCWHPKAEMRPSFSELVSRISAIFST

[4] = molecular target: T4, Flt-3 (baculovirus expressed human Flt-3 kinase domain R571-S993) (Homo sapiens, UniProt P36888); assay: biochemical; conditions: read-out: flt3 IC50;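 also: Luciferase-coupled chemiluminescent kinase assay, activity read as percent ATP left after a 3 h reaction at room temperature, ATP near KM, 10-point dose-response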
T4 construct: human Flt-3 kinase domain R571-S993; host or cells: baculovirus expression
T4 sequence (P36888 571-993): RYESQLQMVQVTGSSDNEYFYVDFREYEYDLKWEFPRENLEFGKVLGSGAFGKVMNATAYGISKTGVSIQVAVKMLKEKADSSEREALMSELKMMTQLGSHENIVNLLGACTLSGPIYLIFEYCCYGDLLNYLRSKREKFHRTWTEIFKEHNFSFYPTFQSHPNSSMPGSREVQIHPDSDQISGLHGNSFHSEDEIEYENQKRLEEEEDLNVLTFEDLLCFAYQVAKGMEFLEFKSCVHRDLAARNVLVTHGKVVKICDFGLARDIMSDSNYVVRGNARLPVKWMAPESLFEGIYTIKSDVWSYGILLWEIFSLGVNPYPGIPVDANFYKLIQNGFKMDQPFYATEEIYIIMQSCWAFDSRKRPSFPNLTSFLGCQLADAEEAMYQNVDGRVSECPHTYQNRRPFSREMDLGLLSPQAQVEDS

c-Kit kinase = c-Kit kinase (Homo sapiens, UniProt P10721); assay: c-Kit AlphaScreen kinase assay; type: biochemical;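 also: c-Kit kinase phosphorylating biotinylated poly(Glu,Tyr), ATP near its KM, 1 h reaction at ambient temperature, AlphaScreen chemiluminescence with streptavidin donor and anti-phosphotyrosine acceptor beads, 10-point inhibitor titration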
c-Kit kinase, sequence (P10721 26-976): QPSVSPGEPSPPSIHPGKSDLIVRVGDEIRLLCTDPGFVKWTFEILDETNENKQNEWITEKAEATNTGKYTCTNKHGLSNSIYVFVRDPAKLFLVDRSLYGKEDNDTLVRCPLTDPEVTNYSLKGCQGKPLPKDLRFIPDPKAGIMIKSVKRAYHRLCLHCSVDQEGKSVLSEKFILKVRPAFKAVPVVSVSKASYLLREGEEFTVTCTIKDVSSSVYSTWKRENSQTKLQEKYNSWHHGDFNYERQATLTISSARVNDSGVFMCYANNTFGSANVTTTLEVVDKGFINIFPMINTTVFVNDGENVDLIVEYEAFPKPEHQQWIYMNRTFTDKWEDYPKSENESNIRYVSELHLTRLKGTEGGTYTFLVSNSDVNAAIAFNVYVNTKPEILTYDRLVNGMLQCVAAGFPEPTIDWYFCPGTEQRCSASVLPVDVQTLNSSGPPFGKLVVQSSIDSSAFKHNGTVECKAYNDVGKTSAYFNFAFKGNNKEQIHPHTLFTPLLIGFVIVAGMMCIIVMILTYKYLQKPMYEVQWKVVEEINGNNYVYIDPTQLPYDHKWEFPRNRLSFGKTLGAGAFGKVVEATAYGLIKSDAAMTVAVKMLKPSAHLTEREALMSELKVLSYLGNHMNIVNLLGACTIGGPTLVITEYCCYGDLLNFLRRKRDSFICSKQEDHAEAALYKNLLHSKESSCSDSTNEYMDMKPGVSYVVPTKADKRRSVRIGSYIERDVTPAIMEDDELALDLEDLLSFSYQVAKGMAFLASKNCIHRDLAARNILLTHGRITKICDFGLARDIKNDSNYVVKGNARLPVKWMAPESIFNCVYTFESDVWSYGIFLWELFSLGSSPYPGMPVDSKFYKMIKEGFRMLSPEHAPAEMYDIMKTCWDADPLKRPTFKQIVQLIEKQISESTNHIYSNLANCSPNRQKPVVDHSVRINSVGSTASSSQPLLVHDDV

[5] = Table 4, inhibition as IC50 class

| SMILES | IC50 [1] | IC50 [2] | IC50 [3] | IC50 [4] | IC50 (c-Kit kinase) | IC50 [1, 5] | IC50 [2, 5] | IC50 [3, 5] | IC50 [4, 5] | IC50 (c-Kit kinase; [5]) |
| --- | --- | --- | --- | --- | --- | --- | --- | --- | --- | --- |
| COc1cc2c(Oc3ccc(NC(=O)C(=O)NCc4ccc(F)c(C(F)(F)F)c4)cc3F)ccnc2cc1OCC1CCNCC1 [Example 216, N-[3-fluoro-4-({6-(methyloxy)-7-[(piperidin-4-ylmethyl)oxy]quinolin-4-yl}oxy)phenyl]-N′-{[4-fluoro-3-(trifluoromethyl)phenyl]methyl}ethanediamide] |  |  |  |  |  | < 50 nM | < 50 nM | < 50 nM | < 50 nM | 50 to 500 nM |
| COc1cc2c(Oc3ccc(NC(=O)C(=O)NC4CCCC4)cc3F)ccnc2cc1OCC1CCNCC1 [Example 220, N-cyclopentyl-N′-[3-fluoro-4-({6-(methyloxy)-7-[(piperidin-4-ylmethyl)oxy]quinolin-4-yl}oxy)phenyl]ethanediamide] |  |  |  |  |  | 50 to 500 nM | 50 to 500 nM | < 50 nM | 50 to 500 nM | 50 to 500 nM |
| COc1cc2c(Oc3ccc(NC(=O)C(=O)NC(C)c4ccc(Br)cc4)cc3F)ccnc2cc1OCC1CCNCC1 (stereo not shown) [Example 221, N-[1-(4-bromophenyl)ethyl]-N′-[3-fluoro-4-({6-(methyloxy)-7-[(piperidin-4-ylmethyl)oxy]quinolin-4-yl}oxy)phenyl]ethanediamide] |  |  |  |  |  | 50 to 500 nM | 50 to 500 nM | < 50 nM | 50 to 500 nM | 50 to 500 nM |
| COc1cc2c(Oc3ccc(NC(=O)C(=O)NCc4cccc(F)c4F)cc3F)ccnc2cc1OCC1CCNCC1 [Example 225, N-[(2,3-difluorophenyl)methyl]-N′-[3-fluoro-4-({6-(methyloxy)-7-[(piperidin-4-ylmethyl)oxy]quinolin-4-yl}oxy)phenyl]ethanediamide] |  |  |  |  |  | < 50 nM | < 50 nM | < 50 nM | 50 to 500 nM | 50 to 500 nM |
| COc1cc2c(Oc3ccc(NC(=O)C(=O)NCCc4ccc(Br)cc4)cc3F)ccnc2cc1OCC1CCNCC1 [Example 230, N-[2-(4-bromophenyl)ethyl]-N′-[3-fluoro-4-({6-(methyloxy)-7-[(piperidin-4-ylmethyl)oxy]quinolin-4-yl}oxy)phenyl]ethanediamide] |  |  |  |  |  | < 50 nM | 50 to 500 nM | < 50 nM | 50 to 500 nM | 50 to 500 nM |
| CCN1CCC(COc2cc3nccc(Oc4ccc(NC(=O)C(=O)N5CCOC(c6ccccc6)C5)cc4F)c3cc2OC)CC1 (stereo not shown) [Example 231, N-(4-{[7-{[(1-ethylpiperidin-4-yl)methyl]oxy}-6-(methyloxy)quinolin-4-yl]oxy}-3-fluorophenyl)-2-oxo-2-(2-phenylmorpholin-4-yl)acetamide] |  |  |  |  |  | 50 to 500 nM | 50 to 500 nM | < 50 nM | 50 to 500 nM | 50 to 500 nM |
| COc1cc2c(Oc3ccc(NC(=O)C4(C(=O)Nc5ccc(F)cc5)CC4)cc3)ccnc2cc1OCCCN1CCOCC1 [Example 335, N-(4-fluorophenyl)-N′-[4-({6-(methyloxy)-7-[(3-morpholin-4-ylpropyl)oxy]quinolin-4-yl}oxy)phenyl]cyclopropane-1,1-dicarboxamide] | < 50 nM | < 50 nM |  | < 50 nM | < 50 nM |  |  |  |  |  |

Further lines, results first:

| IC50 [1] | IC50 [2] | IC50 [3] | IC50 [4] | IC50 (c-Kit kinase) | IC50 [1, 5] | IC50 [2, 5] | IC50 [3, 5] | IC50 [4, 5] | IC50 (c-Kit kinase; [5]) | SMILES |
| --- | --- | --- | --- | --- | --- | --- | --- | --- | --- | --- |
| 500 to 5000 nM | 500 to 5000 nM | 50 to 500 nM | 500 to 5000 nM | 50 to 500 nM |  |  |  |  |  | COc1cc2nccc(Oc3ccc(N4CC(Cc5ccccc5)N(S(=O)(=O)c5ccc(C)cc5)C4=O)cc3)c2cc1OC (stereo not shown) [Example 112, 1-(4-{[6,7-bis(methyloxy)quinolin-4-yl]oxy}phenyl)-3-[(4-methylphenyl)sulfonyl]-4-(phenylmethyl)imidazolidin-2-one] |
|  |  |  |  |  | < 50 nM | < 50 nM | < 50 nM | < 50 nM | < 50 nM | COc1cc2c(Oc3ccc(NC(=O)C(=O)NCc4cc(Cl)cc(Cl)c4)cc3F)ccnc2cc1OCC1CCNCC1 [Example 217, N-[(3,5-dichlorophenyl)methyl]-N′-[3-fluoro-4-({6-(methyloxy)-7-[(piperidin-4-ylmethyl)oxy]quinolin-4-yl}oxy)phenyl]ethanediamide] |
|  |  |  |  |  | 50 to 500 nM | < 50 nM | < 50 nM | 50 to 500 nM | 50 to 500 nM | COc1cc2c(Oc3ccc(NC(=O)C(=O)N[C@@H]4CCCc5ccccc54)cc3F)ccnc2cc1OCC1CCNCC1 [Example 218, N-[3-fluoro-4-({6-(methyloxy)-7-[(piperidin-4-ylmethyl)oxy]quinolin-4-yl}oxy)phenyl]-N′-[(1R)-1,2,3,4-tetrahydronaphthalen-1-yl]ethanediamide] |
|  |  |  |  |  | < 50 nM | < 50 nM | < 50 nM | < 50 nM | < 50 nM | COc1cc2c(Oc3ccc(NC(=O)C(=O)N[C@H]4CCCc5ccccc54)cc3F)ccnc2cc1OCC1CCNCC1 [Example 219, N-[3-fluoro-4-({6-(methyloxy)-7-[(piperidin-4-ylmethyl)oxy]quinolin-4-yl}oxy)phenyl]-N′-[(1S)-1,2,3,4-tetrahydronaphthalen-1-yl]ethanediamide] |
|  |  |  |  |  | < 50 nM | < 50 nM | < 50 nM | < 50 nM | < 50 nM | COc1cc2c(Oc3ccc(NC(=O)C(=O)NCCOc4ccccc4)cc3F)ccnc2cc1OCC1CCNCC1 [Example 226, N-[3-fluoro-4-({6-(methyloxy)-7-[(piperidin-4-ylmethyl)oxy]quinolin-4-yl}oxy)phenyl]-N′-[2-(phenyloxy)ethyl]ethanediamide] |
|  |  |  |  |  | 50 to 500 nM | 50 to 500 nM | < 50 nM | < 50 nM | 50 to 500 nM | COc1cc2c(Oc3ccc(NC(=O)C(=O)NCC(c4ccccc4)c4ccccc4)cc3F)ccnc2cc1OCC1CCNCC1 [Example 227, N-(2,2-diphenylethyl)-N′-[3-fluoro-4-({6-(methyloxy)-7-[(piperidin-4-ylmethyl)oxy]quinolin-4-yl}oxy)phenyl]ethanediamide] |
|  |  |  |  |  | 50 to 500 nM | 50 to 500 nM | < 50 nM | 50 to 500 nM | 50 to 500 nM | COc1ccc(CCNC(=O)C(=O)Nc2ccc(Oc3ccnc4cc(OCC5CCNCC5)c(OC)cc34)c(F)c2)cc1 [Example 228, N-[3-fluoro-4-({6-(methyloxy)-7-[(piperidin-4-ylmethyl)oxy]quinolin-4-yl}oxy)phenyl]-N′-{2-[4-(methyloxy)phenyl]ethyl}ethanediamide] |
|  |  |  |  |  | < 50 nM | < 50 nM | < 50 nM | < 50 nM | < 50 nM | COc1cc2c(Oc3ccc(NC(=O)C(=O)NCC(C)c4ccccc4)cc3F)ccnc2cc1OCC1CCNCC1 (stereo not shown) [Example 229, N-[3-fluoro-4-({6-(methyloxy)-7-[(piperidin-4-ylmethyl)oxy]quinolin-4-yl}oxy)phenyl]-N′-(2-phenylpropyl)ethanediamide] |
|  |  |  |  |  | < 50 nM | 50 to 500 nM | < 50 nM | < 50 nM | 50 to 500 nM | COc1cc2c(Oc3ccc(NC(=O)C(=O)NCc4cc(F)cc(C(F)(F)F)c4)cc3F)ccnc2cc1OCC1CCNCC1 [Example 232, N-[3-fluoro-4-({6-(methyloxy)-7-[(piperidin-4-ylmethyl)oxy]quinolin-4-yl}oxy)phenyl]-N′-{[3-fluoro-5-(trifluoromethyl)phenyl]methyl}ethanediamide] |

— patent US8476298B2 (Exelixis, Inc., priority 2003, dated 2013)
